These results are taken from PubChem BioAssay AID328 (DTP/NCI, 2004).

The test system of the test is BDF1 mice, P388 leukemia ip, median survival T/C. As to the kind of experiment: NCI In Vivo Anticancer Drug Screen. Data for tumor model P388 Leukemia (intraperitoneal) in B6D2F1 (BDF1) mice. Particulars: endpoint: median survival time, higher = longer survival. Put shortly: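 Each value expresses how treatment altered survival: treated-mouse outcome over vehicle-mouse outcome, both groups bearing the transplanted tumour.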

Where [1] appears, read: dose: 10.0 mg/kg/injection, schedule: Q01DX009 (ip), vehicle: Klucel (hydroxypropylcellulose) (HPC).
Where [2] appears, read: dose: 50.0 mg/kg/injection, schedule: Q01DX009 (ip), vehicle: saline with Tween-80.
The mark [3] stands for this setting: dose: 100.0 mg/kg/injection, schedule: Q01DX009 (ip), vehicle: saline with Tween-80.
Where [4] appears, read: dose: 200.0 mg/kg/injection, schedule: Q01DX009 (ip), vehicle: saline with Tween-80.
The mark [5] stands for this setting: dose: 100.0 mg/kg/injection, schedule: Q04DX003 (ip), vehicle: saline with Tween-80.
Where [6] appears, read: dose: 200.0 mg/kg/injection, schedule: Q04DX003 (ip), vehicle: saline with Tween-80.
Where [7] appears, read: dose: 400.0 mg/kg/injection, schedule: Q04DX003 (ip), vehicle: saline with Tween-80.

Structures are written as SMILES. Values joined by “and” are separate entries in the source; they are usually repeats but may differ in a detail not shown here. Equal entries are not always repeated. Toxic doses and inconclusive results are not listed.

On to `ClCCCN1CCN(CCCCl)CC1`, for which the T/C by setting is: (dose: 6.25 mg/kg/injection, schedule: Q01DX009 (ip), vehicle: distilled water + alcohol) 101 % of control; (dose: 12.5 mg/kg/injection, schedule: Q01DX009 (ip), vehicle: distilled water + alcohol) 99 % of control; (dose: 25.0 mg/kg/injection, schedule: Q01DX009 (ip), vehicle: distilled water + alcohol) 115 % of control; (dose: 100.0 mg/kg/injection, schedule: Q01DX009 (ip), vehicle: distilled water + alcohol) 171 % of control.

Turning to `c1ccc2c(c1)C1=NCCN1c1ccccc1-2`, the T/C (dose: 5.3 mg/kg/injection, schedule: Q01DX009 (ip), vehicle: Klucel (hydroxypropylcellulose) (HPC)) is 86 % of control; the T/C (dose: 8.0 mg/kg/injection, schedule: Q01DX009 (ip), vehicle: Klucel (hydroxypropylcellulose) (HPC)) was 86 % of control; the T/C under setting [1] was 115 % of control; the T/C (dose: 12.0 mg/kg/injection, schedule: Q01DX009 (ip), vehicle: Klucel (hydroxypropylcellulose) (HPC)) was 95 % of control; the T/C (dose: 17.7 mg/kg/injection, schedule: Q01DX009 (ip), vehicle: Klucel (hydroxypropylcellulose) (HPC)) is 108 % of control; the T/C (dose: 20.0 mg/kg/injection, schedule: Q01DX009 (ip), vehicle: Klucel (hydroxypropylcellulose) (HPC)) was 110 % of control. In addition, the T/C (dose: 40.0 mg/kg/injection, schedule: Q01DX009 (ip), vehicle: Klucel (hydroxypropylcellulose) (HPC)) is 150 % of control.

Regarding `Cc1cc2nc(Oc3ccccc3)nc(=O)n2o1`, the T/C by setting is: under setting [2], 100 % of control and 117 % of control; under setting [3], 106 % of control and 123 % of control; under setting [4], 112 % of control and 121 % of control.

With `O=[N+]([O-])c1cccc(Oc2ncccc2[N+](=O)[O-])c1`, the T/C was 118 % of control (dose: 65.0 mg/kg/injection, schedule: Q04DX003 (ip), vehicle: Klucel (hydroxypropylcellulose) (HPC)); 109 % of control (dose: 100.0 mg/kg/injection, schedule: Q04DX003 (ip), vehicle: Klucel (hydroxypropylcellulose) (HPC)); 109 % of control (dose: 150.0 mg/kg/injection, schedule: Q04DX003 (ip), vehicle: Klucel (hydroxypropylcellulose) (HPC)); 105 % of control (dose: 200.0 mg/kg/injection, schedule: Q04DX003 (ip), vehicle: Klucel (hydroxypropylcellulose) (HPC)); 115 % of control (dose: 400.0 mg/kg/injection, schedule: Q04DX003 (ip), vehicle: Klucel (hydroxypropylcellulose) (HPC)).

`C=Cn1ccnc1C(O)(c1ccccc1)c1ccc(C(C)(C)C)cc1` (stereo not given): the T/C by setting is: under setting [2], 93 % of control; under setting [3], 90 % of control; under setting [4], 93 % of control.

Take `N=[N+]=CC(=O)OCC(N)C(=O)O` (stereo not given): the T/C is 150 % of control (dose: 3.13 mg/kg/injection, schedule: Q01DX010 (ip), vehicle: saline); 150 % of control and 165 % of control (dose: 6.25 mg/kg/injection, schedule: Q01DX010 (ip), vehicle: saline); 120 % of control (dose: 10.0 mg/kg/injection, schedule: Q01DX010 (ip), vehicle: water); 195 % of control and 200 % of control (dose: 12.5 mg/kg/injection, schedule: Q01DX010 (ip), vehicle: saline); 120 % of control (dose: 15.0 mg/kg/injection, schedule: Q01DX010 (ip), vehicle: water); 115 % of control (dose: 25.0 mg/kg/injection, schedule: Q01DX010 (ip), vehicle: saline).

With `CCOC(=O)c1cnc(=O)[nH]c1N`, the T/C under setting [2] was 99 % of control.

For the compound `N#CCCC(C#N)(CCC#N)c1ccc([N+](=O)[O-])cc1`, the T/C was 92 % of control under setting [3]; 101 % of control under setting [5]; 92 % of control under setting [4]; 100 % of control under setting [6]; 92 % of control (dose: 400.0 mg/kg/injection, schedule: Q01DX009 (ip), vehicle: saline with Tween-80); 102 % of control under setting [7].

`CC(=O)C(C(=O)Nc1ccccc1)c1cc(NS(=O)(=O)c2ccccc2)ccc1O` (stereo not given): the T/C (dose: 100.0 mg/kg/injection, schedule: Q01DX001 (ip), vehicle: saline with Tween-80) was 90 % of control; the T/C (dose: 200.0 mg/kg/injection, schedule: Q01DX001 (ip), vehicle: saline with Tween-80) was 95 % of control; the T/C (dose: 400.0 mg/kg/injection, schedule: Q01DX001 (ip), vehicle: saline with Tween-80) is 86 % of control.

For the compound `CC(C)(C)/C([O-])=N/[N+](C)(C)C`, the T/C runs as follows: (dose: 50.0 mg/kg/injection, schedule: Q01DX001 (ip), vehicle: saline) 109 % of control; (dose: 100.0 mg/kg/injection, schedule: Q01DX001 (ip), vehicle: saline) 104 % of control; (dose: 200.0 mg/kg/injection, schedule: Q01DX001 (ip), vehicle: saline) 104 % of control.

In the case of `COc1cc2c3c(c1)-c1nc4ccccc4cc1CN3CCC2`, the T/C (dose: 12.5 mg/kg/injection, schedule: Q04DX003 (ip), vehicle: other) is 100 % of control; the T/C (dose: 25.0 mg/kg/injection, schedule: Q04DX003 (ip), vehicle: other) is 113 % of control; the T/C (dose: 50.0 mg/kg/injection, schedule: Q04DX003 (ip), vehicle: other) is 109 % of control.

Turning to `Nc1cccc2c1C(=O)C=CC2=O`, the T/C by setting is: (dose: 1.15 mg/kg/injection, schedule: Q01DX009 (ip), vehicle: saline) 112 % of control; (dose: 2.3 mg/kg/injection, schedule: Q01DX009 (ip), vehicle: saline) 108 % of control; (dose: 3.25 mg/kg/injection, schedule: Q04DX003 (ip), vehicle: saline) 121 % of control; (dose: 4.6 mg/kg/injection, schedule: Q01DX009 (ip), vehicle: saline) 108 % of control.

With `Cc1nc2nc(N)nc(N)c2nc1C`, the T/C by setting is: under setting [2], 100 % of control; under setting [3], 104 % of control; under setting [5], 95 % of control; under setting [4], 100 % of control; under setting [6], 95 % of control.

On to `S=c1sc(-c2ccccc2)c[se]1`, for which the T/C (dose: 25.0 mg/kg/injection, schedule: Q01DX009 (ip), vehicle: saline + Tween-80 + alcohol) is 107 % of control and the T/C (dose: 50.0 mg/kg/injection, schedule: Q01DX009 (ip), vehicle: saline + Tween-80 + alcohol) was 105 % of control.

In the case of `Nc1nc(N)c2nc(CNc3ccc(C(=O)NC(CC(=O)O)C(=O)O)cc3)cnc2n1` (stereo not given), the T/C was 104 % of control (dose: 66.0 mg/kg/injection, schedule: Q04DX003 (ip), vehicle: saline with Tween-80) and 100 % of control under setting [5].

`O=C(Cl)C1=C(c2ccccc2)C1c1ccccc1` (stereo not given): the T/C is, setting by setting: under setting [2], 102 % of control; under setting [3], 101 % of control.

For `C=C1C(=O)C2(C)OC2(C)C1C(=O)O` (stereo not given), the T/C reads like this: (dose: 1.25 mg/kg/injection, schedule: Q01DX009 (ip), vehicle: Klucel (hydroxypropylcellulose) (HPC)) 98 % of control; (dose: 2.5 mg/kg/injection, schedule: Q01DX009 (ip), vehicle: Klucel (hydroxypropylcellulose) (HPC)) 114 % of control; (dose: 5.0 mg/kg/injection, schedule: Q01DX009 (ip), vehicle: Klucel (hydroxypropylcellulose) (HPC)) 120 % of control; under setting [1], 109 % of control.

As for `CCC12CCC(=O)NC1Cc1[nH]c3c(OC)cccc3c1C2` (stereo not given), the T/C was 100 % of control (dose: 100.0 mg/kg/injection, schedule: Q04DX003 (ip), vehicle: saline sonified); 100 % of control (dose: 200.0 mg/kg/injection, schedule: Q04DX003 (ip), vehicle: saline sonified); 109 % of control (dose: 400.0 mg/kg/injection, schedule: Q04DX003 (ip), vehicle: saline sonified).

With `CC(=O)N1C(=O)NC(=O)C1(C)c1cccs1` (stereo not given), the T/C is, setting by setting: under setting [2], 109 % of control; under setting [3], 111 % of control; under setting [5], 100 % of control; under setting [4], 109 % of control; under setting [6], 90 % of control; under setting [7], 90 % of control.

On to `C1=CC2(OCCO2)C2CC=CC3(OCCO3)C2C1` (stereo not given), for which the T/C reads like this: (dose: 12.5 mg/kg/injection, schedule: Q01DX009 (ip), vehicle: Klucel (hydroxypropylcellulose) (HPC)) 114 % of control; (dose: 25.0 mg/kg/injection, schedule: Q01DX009 (ip), vehicle: Klucel (hydroxypropylcellulose) (HPC)) 110 % of control and 123 % of control; (dose: 200.0 mg/kg/injection, schedule: Q01DX009 (ip), vehicle: Klucel (hydroxypropylcellulose) (HPC)) 117 % of control.

Regarding `O=C1C=CC(=O)c2c(O)c(CO)c(CO)c(O)c21`, the T/C was 100 % of control (dose: 0.19 mg/kg/injection, schedule: Q01DX009 (ip), vehicle: water); 108 % of control (dose: 0.39 mg/kg/injection, schedule: Q01DX009 (ip), vehicle: water); 115 % of control (dose: 0.78 mg/kg/injection, schedule: Q01DX009 (ip), vehicle: water); 102 % of control (dose: 1.56 mg/kg/injection, schedule: Q01DX009 (ip), vehicle: water); 108 % of control (dose: 3.12 mg/kg/injection, schedule: Q01DX009 (ip), vehicle: water).
